In PubChem BioAssay (NCI):
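A five-concentration, 48-hour dose response in 96-well plates underlies each endpoint, interpolated linearly between surrounding concentrations. Definition used: TGI = concentration required for complete inhibition of growth.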

Columns and labels:
Assay in all cases: NCI anticancer screen, dose series, 48 h
NCI/ADR-RES ovarian = system: NCI/ADR-RES ovarian
BT-549 breast = system: BT-549 breast
OVCAR-4 ovarian = system: OVCAR-4 ovarian
KM12 colon = system: KM12 colon
SK-MEL-28 melanoma = system: SK-MEL-28 melanoma
M14 melanoma = system: M14 melanoma
SF-268 CNS = system: SF-268 CNS
A549 NSCLC = system: A549 NSCLC
SK-MEL-5 melanoma = system: SK-MEL-5 melanoma
CAKI-1 renal = system: CAKI-1 renal
PC-3 prostate = system: PC-3 prostate
UACC-62 melanoma = system: UACC-62 melanoma
MDA-MB-231 breast = system: MDA-MB-231 breast
SN12C renal = system: SN12C renal
UACC-257 melanoma = system: UACC-257 melanoma
HOP-62 NSCLC = system: HOP-62 NSCLC
SK-OV-3 ovarian = system: SK-OV-3 ovarian

| SMILES | TGI (NCI/ADR-RES ovarian) [µM] | TGI (BT-549 breast) [µM] | TGI (OVCAR-4 ovarian) [µM] | TGI (KM12 colon) [µM] | TGI (SK-MEL-28 melanoma) [µM] | TGI (M14 melanoma) [µM] | TGI (SF-268 CNS) [µM] | TGI (A549 NSCLC) [µM] | TGI (SK-MEL-5 melanoma) [µM] | TGI (CAKI-1 renal) [µM] | TGI (PC-3 prostate) [µM] | TGI (UACC-62 melanoma) [µM] | TGI (MDA-MB-231 breast) [µM] | TGI (SN12C renal) [µM] | TGI (UACC-257 melanoma) [µM] | TGI (HOP-62 NSCLC) [µM] | TGI (SK-OV-3 ovarian) [µM] |
| --- | --- | --- | --- | --- | --- | --- | --- | --- | --- | --- | --- | --- | --- | --- | --- | --- | --- |
| Cc1cc2c(cc1C)C(=O)C1(C2)Cc2c(ccc(C)c2C)C1=O (stereo unspecified) | > 100 | > 100 | > 100 | > 100 | > 100 | > 100 | > 100 | > 100 | > 100 | > 100 | > 100 | > 100 | > 100 | > 100 | > 100 | – | – |
| O=C1C[C@@H](Sc2ccccc2)C2(OCCO2)[C@H]2ON3CCC[C@@H]3[C@@H]12 | 31.2 | 18.9 | 19.6 | 18.4 | 23 | 4.58 | 12.1 | 26.3 | – | 15.9 | 20.6 | 24.3 | 7.67 | 7.52 | 29.3 | 13.8 | 27.9 |
| COc1ccc2oc(=O)c(CC=C(C)C)c(O)c2c1C | > 100 | > 100 | – | > 100 | > 100 | > 100 | > 100 | > 100 | > 100 | > 100 | > 100 | > 100 | > 100 | > 100 | > 100 | > 100 | > 100 |
| COc1cc2nc(-c3ccccc3F)[nH]c(=O)c2cc1OC | > 100 | > 100 | > 100 | > 100 | – | > 100 | > 100 | > 100 | > 100 | > 100 | > 100 | > 100 | > 100 | > 100 | > 100 | > 100 | > 100 |
| COc1ccc(OC)c(-c2nc3ccccc3c(=O)[nH]2)c1 | > 100 | > 100 | > 100 | > 100 | – | > 100 | > 100 | > 100 | > 100 | > 100 | > 100 | > 100 | > 100 | > 100 | > 100 | > 100 | > 100 |
| COC(=O)n1c(=O)n(-c2ccccc2)c(=O)n1C(=O)Nc1ccccc1 | > 100 | > 100 | 87.8 | > 100 | > 100 | > 100 | > 100 | > 100 | > 100 | > 100 | > 100 | > 100 | > 100 | – | > 100 | > 100 | > 100 |
| CC(=O)c1nc2ccccc2n1CC(=O)c1ccc(Cl)cc1 | 22.2 | > 100 | > 100 | > 100 | > 100 | > 100 | > 100 | 32.4 | – | > 100 | 60.1 | 27.8 | > 100 | > 100 | > 100 | 25.2 | > 100 |
| O=C(O)Cc1cccc2c1OC(c1ccccc1)C(C(=O)c1ccccc1)C2=O (stereo unspecified) | > 100 | > 100 | – | > 100 | > 100 | – | > 100 | > 100 | > 100 | > 100 | > 100 | 48.7 | > 100 | > 100 | > 100 | > 100 | > 100 |
| CC(C)(C)OC(=O)NC(Cc1ccc(OCc2ccccc2)cn1)C(=O)NCc1ccccc1 (stereo unspecified) | 48.7 | 48.6 | – | 97.8 | > 100 | 47.8 | 75 | > 100 | 26 | > 100 | 53 | 32.5 | 75.1 | 64.6 | 34.5 | 56.1 | 51.6 |
| Cc1nc(-c2cc3c(ccc4ccccc43)oc2=O)cc2c1c(=O)oc1ccc3ccccc3c12 | > 100 | > 100 | > 100 | > 100 | > 100 | > 100 | > 100 | > 100 | > 100 | > 100 | > 100 | > 100 | > 100 | – | > 100 | > 100 | > 100 |
| Cc1cc(S(=O)(=O)n2ccnc2Oc2ccccc2)c(SSc2cc(Cl)c(C)cc2S(=O)(=O)n2ccnc2Oc2ccccc2)cc1Cl | > 100 | > 100 | > 100 | > 100 | > 100 | > 100 | > 100 | > 100 | > 100 | > 100 | > 100 | > 100 | > 100 | > 100 | > 100 | – | > 100 |
| N#Cc1c(N)c2c(c(-c3ccccc3)c1-c1ccccc1)C(=O)N(NC(=O)c1ccccc1)C2=O | > 100 | > 100 | > 100 | > 100 | > 100 | > 100 | > 100 | > 100 | > 100 | > 100 | > 100 | > 100 | > 100 | > 100 | > 100 | – | – |
| CCCN(CCC)c1cc2c(cc1F)c(=O)c(C(=O)O)cn2-c1ccc(N2CCN(C)CC2)cn1 | 35.9 | 25 | 43.3 | 30.3 | 36.5 | 32.1 | 30.7 | 34 | – | 32.5 | 39.3 | 39.6 | 27.1 | 46 | 36.4 | 31.4 | 28.5 |
| CC1=C(C#N)C2C(=C(N)Oc3ccccc32)C(N)=N1 (stereo unspecified) | 45.6 | 93.5 | 77.7 | 71.2 | – | 64.6 | 67.4 | > 100 | 49.5 | 53.9 | > 100 | 48.4 | 66.6 | 72.8 | 69.6 | > 100 | > 100 |
